Reference: patent EP4752142A1, “5-HT2A RECEPTOR AGONIST, AND PREPARATION METHOD THEREFOR AND USE THEREOF” (Innovstone Therapeutics Limited, priority 2023, dated 2025)
pKi: −log10 of the molar value. Like-named read-outs stand apart in the source and are kept apart here.

Target: 5-HT2A receptor (Homo sapiens, UniProt P28223)
Test: 5-HT2A receptor isotope competition affinity assay
Format: binding
Description: A radiolabeled ligand (agonist or antagonist) incubated with receptor protein could form a receptor-ligand complex. An added test compound could compete with the isotopically labeled ligand for the receptor binding, eventually forming a relative steady-state equilibrium. The affinity of the test compound for the receptor was indirectly evaluated by measuring the dissociation of the isotopically labeled ligand from the receptor.
A 100x serial gradient dilution of compounds was prepared in DMSO, starting from 1 mM with 4-fold serial dilutions, resulting in 10 concentration points. Using a pipettor, 1 µL of each gradient concentration of the test compound (final concentration starting at 10 µM, 4-fold serial dilutions, 10 concentration points) was transferred to a 96-well assay plate, to each well of which 49 µL of 5-HT2A receptor protein (102 µg/mL, prepared in an assay buffer: 50 mM Tris-HCl, pH 7.4) had been added in advance (final concentration 5 µg/well). This was followed by the addition of 50 µL of isotopically labeled [^3H]-Ketanserin (2 nM, 2× final concentration, prepared in the assay buffer). The plate was sealed and incubated on a shaker at room temperature for 1 hour. The reaction mixture was filtered through a Unifilter-96 GF/C filter plate pre-treated with 0.3% PEI. The filter plate was washed with a precooled (4°C) assay buffer and then dried in an incubator at 50°C. A scintillation liquid was added, and the plate was read using a MicroBeta2 instrument. The percentage inhibition was calculated using the equation: %Inhibition=(CountHigh Signal Control-CountSample)/(CountHigh Signal Control-CountLow Signal Control)*100. A four-parameter logistic fit was used to calculate the IC50 value. High Signal Control: No compound group (the same volume of DMSO substituted). Low Signal Control: Ketanserin group (non-isotopically labeled, 2× final concentration). Table 1: Results of 5-HT2A receptor isotope competition affinity assay, Ki Values

[1] = competition with [3H]-Ketanserin, 1 hour, room temperature, read-out: 5-HT2A receptor/Ki

5-HT2A receptor, sequence (P28223 whole entry): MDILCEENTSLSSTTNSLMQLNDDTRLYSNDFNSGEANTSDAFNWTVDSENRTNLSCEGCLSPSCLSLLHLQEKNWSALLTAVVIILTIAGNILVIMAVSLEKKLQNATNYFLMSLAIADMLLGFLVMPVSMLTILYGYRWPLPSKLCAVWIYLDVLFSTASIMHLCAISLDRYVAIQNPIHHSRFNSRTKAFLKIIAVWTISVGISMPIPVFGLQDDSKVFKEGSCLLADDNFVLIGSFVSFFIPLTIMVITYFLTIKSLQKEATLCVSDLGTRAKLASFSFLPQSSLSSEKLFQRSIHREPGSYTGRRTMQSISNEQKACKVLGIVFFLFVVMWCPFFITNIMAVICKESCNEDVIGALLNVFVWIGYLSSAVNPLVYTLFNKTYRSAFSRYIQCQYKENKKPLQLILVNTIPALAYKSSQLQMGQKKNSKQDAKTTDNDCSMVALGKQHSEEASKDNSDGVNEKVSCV

Row | SMILES | pKi [1] | pKi
1 | COc1ccccc1CCN1CCC(c2c[nH]c3cccc(O)c23)C1 (stereo not shown) [Compound 1, 3-(1-(2-(2-methoxyphenyl)ethyl)pyrrolidin-3-yl)-1H-indol-4-ol] | > 7.00 | 
2 | Cn1cc(CCCN2CCC(c3n[nH]c4ccccc34)C2)cn1 (stereo not shown) [Compound 69, 3-(1-(3-(1-methyl-1H-pyrazol-4-yl)propyl)pyrrolidin-3-yl)-1H-indazole] |  | > 7.00
3 | c1ccc2c(c1)CC(CN1CCC(c3c[nH]c4ccncc34)C1)CO2 (stereo not shown) [Compound 141] | > 7.00 | 
4 | COc1ccccc1CCCN1CCOC(c2n[nH]c3ccccc23)C1 (stereo not shown) [Compound 37, 3-(4-(3-(2-methoxyphenyl)propyl)morpholin-2-yl)-1H-indazole] |  | > 7.00
5 | Oc1cccc2[nH]cc(C3CCN(CCc4coc5c(F)cccc45)C3)c12 (stereo not shown) [Compound 135] | > 7.00 | 
6 | COc1ccccc1CCCN1CCC(c2c[nH]c3cccc(OC)c23)C1 (stereo not shown) [Compound 9] | > 7.00 | 
7 | c1ccc2c([C@H]3CCN(CCCn4nccn4)C3)c[nH]c2c1 [Compound 177, (R)-3-(1-(3-(2H-1,2,3-triazol-2-yl)propyl)pyrrolidin-3-yl)-1H-indole] | > 7.00 | 
8 | CC(C)c1nnc2n1CCC(CN1CCC(c3c[nH]c4ccccc34)C1)C2 (stereo not shown) [Compound 139, 7-((3-(1H-indol-3-yl)pyrrolidin-1-yl)methyl)-3-isopropyl-5,6,7,8-tetrahydro-[1,2,4]triazolo[4,3-a]pyridine] | > 7.00 | 
9 | c1ccc2c(C3CCN(CCCc4ncsn4)C3)c[nH]c2c1 (stereo not shown) [Compound 55, 3-(1-(3-(1,2,4-thiadiazol-3-yl)propyl)pyrrolidin-3-yl)-1H-indole] | > 7.00 | 
10 | CC(C)n1c(CCCN2CCC(c3c[nH]c4cc(F)ccc34)C2)nnc1C(F)(F)F (stereo not shown) [Compound 100] | > 7.00 | 
11 | CC1CN(CCCc2nncn2C(C)C)CC1c1c[nH]c2cc(F)ccc12 (stereo not shown) [Compound 90, 6-fluoro-3-(4-methyl-1-(3-(4-(propan-2-yl)-4H-1,2,4-triazol-3-yl)propyl)pyrrolidin-3-yl)-1H-indole] | > 7.00 | 
12 | Fc1ccc2c(C3CCN(CCc4nnc5c(F)cccn45)C3)c[nH]c2c1 (stereo not shown) [Compound 149, 6-fluoro-3-(1-(2-(8-fluoro-(1,2,4)triazolo[4,3-a]pyridin-3-yl)ethyl)pyrrolidin-3-yl)-1H-indole] | > 7.00 | 
13 | Oc1cccc2[nH]cc(C3CN(CCCc4cc(F)ccc4F)CCO3)c12 (stereo not shown) [Compound 40] | > 7.00 | 
14 | Cc1nn(CCCN2CC[C@H](c3c[nH]c4cccc(O)c34)C2)nc1C [Compound 185, (R)-3-(1-(3-(4,5-dimethyl-2H-1,2,3-triazol-2-yl)propyl)pyrrolidin-3-yl)-1H-indol-4-ol] | > 7.00 | 
15 | COc1ccccc1CCCN1CCOC(c2c[nH]c3ccccc23)C1 (stereo not shown) [Compound 29, 2-(1H-indol-3-yl)-4-(3-(2-methoxyphenyl)propyl)morpholine] |  | > 7.00
16 | COc1ncncc1CCCN1CCC(c2c[nH]c3ccccc23)C1 (stereo not shown) [Compound 132, 3-(1-(3-(4-methoxypyrimidin-5-yl)propyl)pyrrolidin-3-yl)-1H-indole] | > 7.00 | 
17 | COc1ccccc1CCCN1CC(c2c[nH]c3ccccc23)C1 [Compound 11, 3-(1-(3-(2-methoxyphenyl)propyl)azetidin-3-yl)-1H-indole] | > 7.00 | 
18 | c1ccc2c([C@@H]3CCN(CCCn4nccn4)C3)c[nH]c2c1 [Compound 178, (S)-3-(1-(3-(2H-1,2,3-triazol-2-yl)propyl)pyrrolidin-3-yl)-1H-indole] | > 7.00 | 
19 | COc1ccccc1CCCN1CCC(c2c[nH]c3ccccc23)C1 (stereo not shown) [Compound 5, 3-(1-(3-(2-methoxyphenyl)propyl)pyrrolidin-3-yl)-1H-indole] | > 7.00 | 
20 | Cn1cc(CCCN2CCC(c3c[nH]c4ccccc34)C2)cn1 (stereo not shown) [Compound 57, 3-(1-(3-(1-methyl-1H-pyrazol-4-yl)propyl)pyrrolidin-3-yl)-1H-indole] | > 7.00 | 

Row | SMILES | pKi [1] | pKi
21 | COc1ccccc1CCCN1CCC(c2c[nH]c3ncccc23)C1 (stereo not shown) [Compound 22] | > 7.00 | 
22 | CC(C)c1nc(CCCN2CCC(c3n[nH]c4ccccc34)C2)no1 (stereo not shown) [Compound 175, 3-(3-(-3-(1H-indazol-3-yl)pyrrolidin-1-yl)propyl)-5-isopropyl-1,2,4-oxadiazole] | > 7.00 | 
23 | c1ccc2c(C3CCN(CCc4nnc5sccn45)C3)c[nH]c2c1 (stereo not shown) [Compound 143, 3-(2-(3-(1H-indol-3-yl)pyrrolidin-1-yl)ethyl)thiazolo[2,3-c][1,2,4]triazole] | > 7.00 | 
24 | COc1ccccc1C1CCN(CCc2c[nH]c3cccc(O)c23)CC1 [Compound 10, 3-(2-(4-(2-methoxyphenyl)piperidin-1-yl)ethyl)-1H-indol-4-ol] | > 7.00 | 
25 | Cn1cc(CCCN2CCC(c3noc4cc(F)ccc34)C2)cn1 (stereo not shown) [Compound 68] | > 7.00 | 
26 | Cc1nnc(CCCN2CCC(c3c[nH]c4ccccc34)C2)n1C(C)C (stereo not shown) [Compound 86, 3-(1-(3-(5-methyl-4-(propan-2-yl)-4H-1,2,4-triazol-3-yl)propyl)pyrrolidin-3-yl)-1H-indole] | > 7.00 | 
27 | c1ccc2c(C3CCN(CCCc4nncs4)C3)c[nH]c2c1 (stereo not shown) [Compound 50, 3-(1-(3-(1,3,4-thiadiazol-2-yl)propyl)pyrrolidin-3-yl)-1H-indole] |  | > 7.00
28 | c1ccc2c(C3CCN(CCCn4nccn4)C3)n[nH]c2c1 (stereo not shown) [Compound 189, 3-(1-(3-(2H-1,2,3-triazol-2-yl)propyl)pyrrolidin-3-yl)-1H-indazole] | > 7.00 | 
29 | COc1ccccc1CCCN1CCC(c2n[nH]c3ccncc23)C1 (stereo not shown) [Compound 30] | > 7.00 | 
30 | COc1ccccc1CCCN1CCC(c2c[nH]c3cccc(F)c23)C1 (stereo not shown) [Compound 8] | > 7.00 | 
31 | c1ccc2c(C3CCN(CC4CCn5c(nnc5C5CC5)C4)C3)c[nH]c2c1 (stereo not shown) [Compound 145, 3-(1-((3-cyclopropyl-SH,6H,7H,8H-[1,2,4]triazolo[4,3-a]pyridine-7-yl)methyl)pyrrolidin-3-yl)-1H-indole] | > 7.00 | 
32 | Oc1cccc2[nH]cc(C3CCN(CCCc4ncon4)C3)c12 (stereo not shown) [Compound 173, 3-(1-(3-(1,2,4-oxadiazol-3-yl)propyl)pyrrolidin-3-yl)-1H-indol-4-ol] | > 7.00 | 
33 | Fc1ccc2c(C3CCN(CCCc4nncn4C4CC4)C3)c[nH]c2c1 (stereo not shown) [Compound 99] | > 7.00 | 
34 | CC(CCc1nncn1C(C)C)N1CCC(c2c[nH]c3cc(F)ccc23)C1 (stereo not shown) [Compound 91] | > 7.00 | 
35 | COc1ccccc1CCCN1C2CCC1C(c1c[nH]c3ccccc13)C2 (stereo not shown) [Compound 16, 3-(7-(3-(2-methoxyphenyl)propyl)-7-azabicyclo[2.2.1]heptan-2-yl)-1H-indole] | > 7.00 | 
36 | CC(C)c1nc(CCCN2CCC(c3c[nH]c4cccc(O)c34)C2)no1 (stereo not shown) [Compound 174, 3-(1-(3-(5-isopropyl-1,2,4-oxadiazol-3-yl)propyl)pyrrolidin-3-yl)-1H-indol-4-ol] | > 7.00 | 
37 | CC(C)n1cnnc1CCCN1CCC(c2c[nH]c3ccccc23)C1 (stereo not shown) [Compound 79] | > 7.00 | 
38 | COc1ccccc1CCCN1CCC(c2n[nH]c3ccccc23)C1 (stereo not shown) [Compound 23] | > 7.00 | 
39 | Cc1nn(CCCN2CC[C@@H](c3c[nH]c4cccc(O)c34)C2)nc1C [Compound 186, (S)-3-(1-(3-(4,5-dimethyl-2H-1,2,3-triazol-2-yl)propyl)pyrrolidin-3-yl)-1H-indol-4-ol] | > 7.00 | 
40 | Oc1cccc2[nH]cc([C@H]3CCN(CCCn4nccn4)C3)c12 [Compound 181, (R)-3-(1-(3-(2H-1,2,3-triazol-2-yl)propyl)pyrrolidin-3-yl)-1H-indol-4-ol] | > 7.00 | 
